Tested on: heavy menstrual bleeding associated with uterine fibroids
Test: Example 5A 12-week placebo-controlled study in uterine fibroids: efficacy (PBAC, volumes, NRS, UFS-QOL, anemia parameters)
Assay type: in vivo, human
Procedure: Study participants were Japanese women with HMB (heavy menstrual bleeding) associated with UF (uterine fibroids).
Only the largest myomas among those measurable at Visit 1 were measured throughout the study.
During the period between Visit 2 and 3, in which subjects must have experienced at least 1 regular menstrual cycle, the baseline values concerning efficacy evaluation, including PBAC scores and pain symptoms, were collected. The baseline PBAC score is the total PBAC score for the entire menstrual cycle immediately before Visit 3.
Visit 3 was on Days 1 to 5 of the second menstrual cycle after Visit 1. From Visits 3 to 7, subjects tried to visit the clinics in a fasted state and before taking the study drug.
When a dose was missed before breakfast, subjects took the study drug 30 minutes before either dinner or lunch on the same day.
Pain symptoms, other clinical symptoms and QOL were measured as secondary endpoints. Pain symptoms were evaluated in the patient diary from Visit 1 to the day before Visit 7 using the NRS score. The UFS-QOL score was used to evaluate other clinical symptoms and the QOL of subjects. Subjects completed the UFS-QOL questionnaire at Visits 3, 5, 6 and 7.
In particular, FIGS. 50-52 tabulate hemoglobin concentrations; FIG. 53 tabulates hematocrit percentages; FIG. 54 tabulates serum iron concentrations; and FIG. 55 tabulates ferritin concentrations.
PBAC scores were used in Example 5A, and provide an estimate of menstrual blood loss volume. The PBAC score was evaluated by having subjects record details related to menstrual blood loss on a PBAC score sheet distributed by the sponsor during the treatment period. […] These items represent the level of stained sanitary materials over the course of a menstrual cycle, with a total score ranging from 0 (none) to infinity. Higher scores indicate heavier blood loss. The PBAC score sheet also allows subjects to indicate: whether they experienced bleeding between periods that required sanitary protection; whether they passed clots, and if so, approximate size of the clots; whether they experienced episodes of flooding; and whether they required double protection (used both a pad and tampon simultaneously). As used in the PBAC score sheet of Example 5A, flooding is defined as overflowing, or staining, of clothing or underwear due to menstrual bleeding.
The total PBAC score was derived by summing points for each of the above.
All myoma and uterine volumes referred to herein were evaluated using transvaginal ultrasound. Specifically, the myoma volumes were calculated using the following formula: D1×D2×D3×π/6, where D1 is the longest diameter of the myoma; D2 is the longest diameter of the myoma at an angle perpendicular to D1; and D3 is the diameter of the myoma crossing the intersection of D1 and D2 perpendicular to the D1/D2 plane.

[1] = 10 mg, Week 6-12, listed as Relugolix
[2] = 10 mg, Week 12, listed as Relugolix
[3] = 20 mg, Week 6-12, listed as Relugolix

Structure (SMILES): CONC(=O)Nc1ccc(-c2sc3c(c2CN(C)C)c(=O)n(-c2ccc(OC)nn2)c(=O)n3Cc2c(F)cccc2F)cc1 [Compound 1, N-(4-(1-(2,6-difluorobenzyl)-5-((dimethylamino)methyl)-3-(6-methoxy-3-pyridazinyl)-2,4-dioxo-1,2,3,4-tetrahydrothieno[2,3-d]pyrimidin-6-yl)phenyl)-N′-methoxyurea]
- Amenorrhea (PBAC from Week 6 to 12 was 0), number of patients (10 mg (n = 48)): 8 n
- complete response rate, uterine fibroids (10 mg or 20 mg): 21-44%
- myoma volume (10 mg, Week 2): 116.68±152.833 cm^3
- uterine volume (10 mg, Week 2): 305.07±265.810 cm^3
- NRS score (10 mg, Week 2-6): 0.67±1.228
- subjects who achieved amenorrhea (PBAC = 0) (10 mg, Week 2-6): 12.5%
- subjects with total PBAC score <10 (10 mg, Week 2-6): 16.7%
- NRS score (10 mg, Week 2-12): 0.63±1.217
- subjects who achieved amenorrhea (PBAC = 0) (10 mg, Week 2-12): 10.4%
- subjects with total PBAC score <10 (10 mg, Week 2-12): 12.5%
- Fe value (serum iron) (10 mg, Week 4): 72.8 ± 40.58 µg/dL
- Ht value (10 mg, Week 4): 39.48±3.327%
- UFS-QOL HRQL total score (10 mg, Week 4): 11.28±10.342
- UFS-QOL symptom severity score (10 mg, Week 4): 23.78±14.736
- ferritin value (10 mg, Week 4): 14.71 ± 16.372 ng/mL
- myoma volume (10 mg, Week 4): 90.89±108.009 cm^3
- uterine volume (10 mg, Week 4): 258.10±171.703 cm^3
- change of total PBAC score from baseline (10 mg, Week 6-12): −1.4±222.94
- subjects who achieved amenorrhea (PBAC = 0) (10 mg, Week 6-12): 16.7%
- subjects with total PBAC score <10 (10 mg, Week 6-12): 20.8%
- total PBAC score (mean±SD) (10 mg, Week 6-12): 268.0±276.37
- NRS score [1]: 0.6
- subjects who achieved amenorrhea (PBAC = 0) [1]: (16.7) %
- Fe value (serum iron) (10 mg, Week 8): 67.3 ± 34.74 µg/dL
- Ht value (10 mg, Week 8): 39.43±3.154%
- UFS-QOL HRQL total score (10 mg, Week 8): 13.39±13.179
- UFS-QOL symptom severity score (10 mg, Week 8): 24.55±16.105
- myoma volume (10 mg, Week 8): 97.47±117.339 cm^3
- uterine volume (10 mg, Week 8): 259.64±190.452 cm^3
- Fe value (serum iron) (10 mg, Week 12): 75.3 ± 46.94 µg/dL
- Ht value (10 mg, Week 12): 39.37±3.639%
- UFS-QOL HRQL total score (10 mg, Week 12): 13.01±13.270
- UFS-QOL HRQL total, change from baseline (10 mg, Week 12): −1.61±10.586
- UFS-QOL symptom severity score (10 mg, Week 12): 23.28±16.053
- UFS-QOL symptom severity, change from baseline (10 mg, Week 12): −6.51±18.122
- change of Fe value from baseline (10 mg, Week 12): 11.0 ± 42.94 µg/dL
- change of Hb from baseline (10 mg, Week 12): 0.35 ± 1.055 g/dL
- change of Ht value from baseline (10 mg, Week 12): 0.77±2.792%
- change of ferritin value from baseline (10 mg, Week 12): -2.56 ± 6.833 ng/mL
- ferritin value (10 mg, Week 12): 10.81 ± 9.489 ng/mL
- myoma volume (10 mg, Week 12): 97.09±126.578 cm^3
- percent change of myoma volume from baseline (10 mg, Week 12): −22.63±29.539%
- percent change of uterine volume from baseline (10 mg, Week 12): −12.10±29.936%
- uterine volume (10 mg, Week 12): 252.93±175.064 cm^3
- UFS-QOL HRQL total, change from baseline [2]: −2
- UFS-QOL symptom severity, change from baseline [2]: −7
- change of Hb from baseline [2]: 0.3 g/dL
- percent change of myoma volume from baseline [2]: −23%
- percent change of uterine volume from baseline [2]: −12%
- Amenorrhea (PBAC from Week 6 to 12 was 0), number of patients (20 mg (n = 56)): 21 n
- myoma volume (20 mg, Week 2): 98.63±112.118 cm^3
- uterine volume (20 mg, Week 2): 294.81±269.990 cm^3
- NRS score (20 mg, Week 2-6): 0.48±0.970
- subjects who achieved amenorrhea (PBAC = 0) (20 mg, Week 2-6): 33.9%
- subjects with total PBAC score <10 (20 mg, Week 2-6): 42.9%
- NRS score (20 mg, Week 2-12): 0.44±0.855
- subjects who achieved amenorrhea (PBAC = 0) (20 mg, Week 2-12): 28.6%
- subjects with total PBAC score <10 (20 mg, Week 2-12): 32.1%
- Fe value (serum iron) (20 mg, Week 4): 77.4 ± 49.74 µg/dL
- Ht value (20 mg, Week 4): 40.06±3.773%
- UFS-QOL HRQL total score (20 mg, Week 4): 11.10±13.829
- UFS-QOL symptom severity score (20 mg, Week 4): 23.12±14.327
- ferritin value (20 mg, Week 4): 14.77 ± 11.536 ng/mL
- myoma volume (20 mg, Week 4): 101.51±132.419 cm^3
- uterine volume (20 mg, Week 4): 291.73±327.844 cm^3
- NRS score (20 mg, Week 6-12): 0.35±0.618
- change of total PBAC score from baseline (20 mg, Week 6-12): −153.0±194.83
- subjects who achieved amenorrhea (PBAC = 0) (20 mg, Week 6-12): 38.2%
- subjects with total PBAC score <10 (20 mg, Week 6-12): 43.6%
- NRS score [3]: 0.4
- subjects who achieved amenorrhea (PBAC = 0) [3]: (38.2) %
- Fe value (serum iron) (20 mg, Week 8): 84.2 ± 49.42 µg/dL
- Ht value (20 mg, Week 8): 40.39±3.389%
